These compounds were tested on FLAP (5-lipoxygenase activating protein) (assay: In vitro binding test: displacement of [3H]-7-chloro-3-(5-((3-fluoropyridin-2-yl)methoxy)-2-methylphenyl)-3,4-dihydroquinazolin-2(1H)-one from Sf9 microsome fractions). Conditions: Sf9 microsome fractions expressing FLAP; 100% = radioligand binding with 10 μM sodium 3-(3-(tert-butylsulfanyl)-1-(4-chlorobenzyl)-5-isopropyl-1H-indol-2-yl)-2,2-dimethylpropanoate, 0% = DMSO; test compound concentration not given.
Design: species or system human and mouse
Procedure: As an assay buffer, 100 mM Tris-HCl, pH 7.5, 140 mM NaCl, 2 mM EDTA, 0.5 mM dithiothreitol, 5% glycerol, 0.05% Tween20 was used. Sf9 microsome fractions expressing human and mouse FLAPs were dispensed by 50 μL to a 96-well plate at 2 μg/mL. Furthermore, a test compound (25 μL) diluted 4-fold of the final concentration with the assay buffer was added and mixed therewith, and the mixture was incubated at room temperature for 10 min. Furthermore, 120 nM [^3H]-7-chloro-3-(5-((3-fluoropyridin-2-yl)methoxy)-2-methylphenyl)-3,4-dihydroquinazolin-2(1H)-one was added by 25 μL, and mixed therewith, and the mixture was incubated at room temperature for 60 min. Thereafter, the cells were transferred to a 96-well GF/B Unifilter plate with a FilterMate cell harvester, and washed 3 times with a wash buffer (100 mM Tris-HCl pH 7.5, 0.05% Tween20, 200 μL) cooled to 4° C. The GF/B Unifilter plate was dried at 37° C., Microscint 0 was added and measured by TopCount NXT (PerkinElmer). As for the inhibitory activity, the inhibitory rate was calculated wherein the [^3H]-7-chloro-3-(5-((3-fluoropyridin-2-yl)methoxy)-2-methylphenyl)-3,4-dihydroquinazolin-2(1H)-one binding amount in the presence of 10 μM sodium 3-(3-(tert-butylsulfanyl)-1-(4-chlorobenzyl)-5-isopropyl-1H-indol-2-yl)-2,2-dimethylpropanoate was 100%, and the [^3H]-7-chloro-3-(5-((3-fluoropyridin-2-yl)methoxy)-2-methylphenyl)-3,4-dihydroquinazolin-2(1H)-one binding amount in the presence of DMSO was 0%.

First: Cc1cc2c(cc1N1Cc3c(cncc3C3CC3)NC1=O)OC(c1ncccc1F)CC2 (stereo not shown) [Example 26, 5-cyclopropyl-3-(2-(3-fluoropyridin-2-yl)-6-methyl-3,4-dihydro-2H-chromen-7-yl)-3,4-dihydropyrido[3,4-d]pyrimidin-2(1H)-one]
Second: Cc1cc2c(cc1N1Cc3c(C4CC4)ccnc3NC1=O)OC(c1ncccc1F)CC2 (stereo not shown) [Example 50, 5-cyclopropyl-3-(2-(3-fluoropyridin-2-yl)-6-methyl-3,4-dihydro-2H-chromen-7-yl)-3,4-dihydropyrido[2,3-d]pyrimidin-2(1H)-one]
The “inhibitory rate (%)” value of the first is higher: 101% for the first, 67% for the second.

First: CCc1nccc2c1CN(c1cc3c(cc1C)CCC(c1ncccc1F)O3)C(=O)N2 (stereo not shown) [Example 27, 5-ethyl-3-(2-(3-fluoropyridin-2-yl)-6-methyl-3,4-dihydro-2H-chromen-7-yl)-3,4-dihydropyrido[4,3-d]pyrimidin-2(1H)-one]
Second: CC(=O)c1nccc2c1CN(c1cc3c(cc1C)CCC(c1ncccc1F)O3)C(=O)N2 (stereo not shown) [Example 34, 5-acetyl-3-(2-(3-fluoropyridin-2-yl)-6-methyl-3,4-dihydro-2H-chromen-7-yl)-3,4-dihydropyrido[4,3-d]pyrimidin-2(1H)-one]
The “inhibitory rate (%)” value of the first is lower: 82% for the first, 111% for the second.

Going from `O=C1Nc2ccnc(Cl)c2CN1c1ccc2c(c1)OC(c1ncccc1F)CC2` (stereo not shown) [Example 28, 5-chloro-3-(2-(3-fluoropyridin-2-yl)-3,4-dihydro-2H-chromen-7-yl)-3,4-dihydropyrido[4,3-d]pyrimidin-2(1H)-one] to `O=C1Nc2ccnc(Cl)c2CN1c1cc2c(cc1C(F)(F)F)CCC(c1ncccc1F)O2` (stereo not shown) [Example 35, 5-chloro-3-(2-(3-fluoropyridin-2-yl)-6-(trifluoromethyl)-3,4-dihydro-2H-chromen-7-yl)-3,4-dihydropyrido[4,3-d]pyrimidin-2(1H)-one], the “inhibitory rate (%)” value falls from 98% to 93%.

First: Cc1cc2c(cc1N1Cc3cnccc3NC1=O)OC(c1ncccc1F)CC2 (stereo not shown) [Example 29, 3-(2-(3-fluoropyridin-2-yl)-6-methyl-3,4-dihydro-2H-chromen-7-yl)-3,4-dihydropyrido[4,3-d]pyrimidin-2(1H)-one]
Second: Cc1cc2c(cc1N1Cc3cnc(Cl)cc3NC1=O)OC(c1ncccc1F)CC2 (stereo not shown) [Example 47, 7-chloro-3-(2-(3-fluoropyridin-2-yl)-6-methyl-3,4-dihydro-2H-chromen-7-yl)-3,4-dihydropyrido[4,3-d]pyrimidin-2(1H)-one]
The “inhibitory rate (%)” value of the first is lower: 99% for the first, 114% for the second.

Going from `CCOC(=O)c1nccc2c1CN(c1cc3c(cc1C)CCC(c1ncccc1F)O3)C(=O)N2` (stereo not shown) [Example 30, ethyl 3-(2-(3-fluoropyridin-2-yl)-6-methyl-3,4-dihydro-2H-chromen-7-yl)-2-oxo-1,2,3,4-tetrahydropyrido[4,3-d]pyrimidine-5-carboxylate] to `Cc1cc2c(cc1N1Cc3c(ccnc3C(=O)NC3CC3)NC1=O)OC(c1ncccc1F)CC2` (stereo not shown) [Example 32, N-cyclopropyl-3-(2-(3-fluoropyridin-2-yl)-6-methyl-3,4-dihydro-2H-chromen-7-yl)-2-oxo-1,2,3,4-tetrahydropyrido[4,3-d]pyrimidine-5-carboxamide], the “inhibitory rate (%)” value falls from 105% to 101%.

Compared with `Cc1cc2c(cc1N1Cc3c(ccnc3C(C)(C)O)NC1=O)OC(c1ncccc1F)CC2` (stereo not shown) [Example 33, 3-(2-(3-fluoropyridin-2-yl)-6-methyl-3,4-dihydro-2H-chromen-7-yl)-5-(2-hydroxypropan-2-yl)-3,4-dihydropyrido[4,3-d]pyrimidin-2(1H)-one], `Cc1cc2c(cc1N1Cc3c(Cl)ccnc3NC1=O)OC(c1ncccc1F)CC2` (stereo not shown) [Example 36, 5-chloro-3-(2-(3-fluoropyridin-2-yl)-6-methyl-3,4-dihydro-2H-chromen-7-yl)-3,4-dihydropyrido[2,3-d]pyrimidin-2(1H)-one] is higher in “inhibitory rate (%)” value: 106% for the first, 115% for the second.

Going from `Cc1cc2c(cc1N1Cc3c(Cl)ncnc3NC1=O)OC(c1ncccc1F)CC2` (stereo not shown) [Example 37, 5-chloro-3-(2-(3-fluoropyridin-2-yl)-6-methyl-3,4-dihydro-2H-chromen-7-yl)-3,4-dihydropyrimido[4,5-d]pyrimidin-2(1H)-one] to `Cc1cc2c(cc1N1Cc3cc(Cl)cnc3NC1=O)OC(c1ncccc1F)CC2` (stereo not shown) [Example 48, 6-chloro-3-(2-(3-fluoropyridin-2-yl)-6-methyl-3,4-dihydro-2H-chromen-7-yl)-3,4-dihydropyrido[2,3-d]pyrimidin-2(1H)-one], the “inhibitory rate (%)” value falls from 107% to 105%.

Going from `Cc1cc2c(cc1N1Cc3cn(CC(F)(F)F)c(=O)cc3NC1=O)OC(c1ncccc1F)CC2` (stereo not shown) [Example 38, 3-(2-(3-fluoropyridin-2-yl)-6-methyl-3,4-dihydro-2H-chromen-7-yl)-6-(2,2,2-trifluoroethyl)-4,6-dihydropyrido[4,3-d]pyrimidine-2,7(1H,3H)-dione] to `Cc1cc2c(cc1N1Cc3cc(Cl)ncc3NC1=O)OC(c1ncccc1F)CC2` (stereo not shown) [Example 43, 6-chloro-3-(2-(3-fluoropyridin-2-yl)-6-methyl-3,4-dihydro-2H-chromen-7-yl)-3,4-dihydropyrido[3,4-d]pyrimidin-2 (1H)-one], the “inhibitory rate (%)” value rises from 104% to 107%.

Going from `O=C1Nc2ccnc(C3CC3)c2CN1c1cc2c(cc1Cl)CCC(c1ncccc1F)O2` (stereo not shown) [Example 39, 3-(6-chloro-2-(3-fluoropyridin-2-yl)-3,4-dihydro-2H-chromen-7-yl)-5-cyclopropyl-3,4-dihydropyrido[4,3-d]pyrimidin-2(1H)-one] to `O=C1Nc2c(ccnc2Cl)CN1c1cc2c(cc1Cl)CCC(c1ncccc1F)O2` (stereo not shown) [Example 54, 8-chloro-3-(6-chloro-2-(3-fluoropyridin-2-yl)-3,4-dihydro-2H-chromen-7-yl)-3,4-dihydropyrido[3,4-d]pyrimidin-2(1H)-one], the “inhibitory rate (%)” value rises from 94% to 115%.

Compared with `Cc1cc2c(cc1N1Cc3cccnc3NC1=O)OC(c1ncccc1F)CC2` (stereo not shown) [Example 40, 3-(2-(3-fluoropyridin-2-yl)-6-methyl-3,4-dihydro-2H-chromen-7-yl)-3,4-dihydropyrido[2,3-d]pyrimidin-2(1H)-one], `Cc1cc2c(cc1N1Cc3ncccc3NC1=O)OC(c1ncccc1F)CC2` (stereo not shown) [Example 45, 3-(2-(3-fluoropyridin-2-yl)-6-methyl-3,4-dihydro-2H-chromen-7-yl)-3,4-dihydropyrido[3,2-d]pyrimidin-2(1H)-one] is lower in “inhibitory rate (%)” value: 108% for the first, 99% for the second.

Compared with `Cc1cc2c(cc1N1Cc3c(cc(Cl)nc3Cl)NC1=O)OC(c1ncccc1F)CC2` (stereo not shown) [Example 41, 5,7-dichloro-3-(2-(3-fluoropyridin-2-yl)-6-methyl-3,4-dihydro-2H-chromen-7-yl)-3,4-dihydropyrido[4,3-d]pyrimidin-2(1H)-one], `Cc1cc2c(cc1N1Cc3c(cc(C4CC4)nc3C3CC3)NC1=O)OC(c1ncccc1F)CC2` (stereo not shown) [Example 52, 5,7-dicyclopropyl-3-(2-(3-fluoropyridin-2-yl)-6-methyl-3,4-dihydro-2H-chromen-7-yl)-3,4-dihydropyrido[4,3-d]pyrimidin-2(1H)-one] is higher in “inhibitory rate (%)” value: 108% for the first, 115% for the second.

Compared with `Cc1cc2c(cc1N1Cc3c(cc(C4COC4)nc3C3CC3)NC1=O)OC(c1ncccc1F)CC2` (stereo not shown) [Example 42, 5-cyclopropyl-3-(2-(3-fluoropyridin-2-yl)-6-methyl-3,4-dihydro-2H-chromen-7-yl)-7-(oxetan-3-yl)-3,4-dihydropyrido[4,3-d]pyrimidin-2(1H)-one], `Cc1cc2c(cc1N1Cc3c(cc(C4CN(C(=O)n5ccnc5)C4)nc3C3CC3)NC1=O)OC(c1ncccc1F)CC2` (stereo not shown) [Example 49, 5-cyclopropyl-3-(2-(3-fluoropyridin-2-yl)-6-methyl-3,4-dihydro-2H-chromen-7-yl)-7-(1-(1H-imidazol-1-ylcarbonyl)azetidin-3-yl)-3,4-dihydropyrido[4,3-d]pyrimidin-2(1H)-one] is higher in “inhibitory rate (%)” value: 116% for the first, 120% for the second.

Going from `Cc1cc2c(cc1N1Cc3c(ccnc3-c3ncco3)NC1=O)OC(c1ncccc1F)CC2` (stereo not shown) [Example 46, 3-(2-(3-fluoropyridin-2-yl)-6-methyl-3,4-dihydro-2H-chromen-7-yl)-5-(1,3-oxazol-2-yl)-3,4-dihydropyrido[4,3-d]pyrimidin-2(1H)-one] to `Cc1cc2c(cc1N1Cc3c(ccnc3Cl)NC1=O)OC(c1ccccn1)CC2` (stereo not shown) [Example 51, 5-chloro-3-(6-methyl-2-(pyridin-2-yl)-3,4-dihydro-2H-chromen-7-yl)-3,4-dihydropyrido[4,3-d]pyrimidin-2(1H)-one], the “inhibitory rate (%)” value rises from 104% to 105%.

Compared with `O=C1Nc2c(Cl)cnc(Cl)c2CN1c1cc2c(cc1Cl)CCC(c1ncccc1F)O2` (stereo not shown) [Example 53, 5,8-dichloro-3-(6-chloro-2-(3-fluoropyridin-2-yl)-3,4-dihydro-2H-chromen-7-yl)-3,4-dihydropyrido[4,3-d]pyrimidin-2(1H)-one], `COCCN1C(=O)N(c2cc3c(cc2Cl)CCC(c2ncccc2F)O3)Cc2c1ccnc2Cl` (stereo not shown) [Example 55, 5-chloro-3-(6-chloro-2-(3-fluoropyridin-2-yl)-3,4-dihydro-2H-chromen-7-yl)-1-(2-methoxyethyl)-3,4-dihydropyrido[4,3-d]pyrimidin-2(1H)-one] is higher in “inhibitory rate (%)” value: 103% for the first, 106% for the second.

Reference: US20150299188A1, “HETEROCYCLIC COMPOUND” (priority 2012, published 2015)
